# Reference: ChEMBL document CHEMBL1287689, “Sulfonamide derivatives of styrylheterocycles as a potent inhibitor of COX-2-mediated prostaglandin E2 production” (Bioorg Med Chem Lett, 2010)
# Active and inactive are the calls of the source. The rule behind the calls is not given here.
# Biological target: T1, Prostaglandin G/H synthase 2 (Mus musculus, UniProt Q05769)
# T1 sequence (Q05769 whole entry): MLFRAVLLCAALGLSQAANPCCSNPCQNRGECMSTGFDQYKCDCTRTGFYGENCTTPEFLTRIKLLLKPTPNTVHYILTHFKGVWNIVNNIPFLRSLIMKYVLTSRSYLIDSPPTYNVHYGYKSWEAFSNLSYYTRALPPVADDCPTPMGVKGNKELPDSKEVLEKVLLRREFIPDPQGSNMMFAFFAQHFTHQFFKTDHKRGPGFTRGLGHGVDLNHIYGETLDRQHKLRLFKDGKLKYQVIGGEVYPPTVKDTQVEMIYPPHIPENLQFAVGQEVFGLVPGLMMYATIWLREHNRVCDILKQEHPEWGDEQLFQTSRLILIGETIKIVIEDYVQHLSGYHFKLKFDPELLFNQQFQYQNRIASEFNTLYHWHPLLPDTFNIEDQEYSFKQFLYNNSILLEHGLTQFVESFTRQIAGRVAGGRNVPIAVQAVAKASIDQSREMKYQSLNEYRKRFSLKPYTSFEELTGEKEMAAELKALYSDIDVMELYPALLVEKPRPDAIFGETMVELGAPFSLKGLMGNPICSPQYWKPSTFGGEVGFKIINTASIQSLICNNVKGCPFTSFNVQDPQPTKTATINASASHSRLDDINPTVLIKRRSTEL
# Test: Inhibition of COX-2 mediated PGE2 production in LPS-induced mouse RAW264.7 cells
# Assay type: cell-based
row,SMILES,IC50
1,NS(=O)(=O)c1ccc(/C=C/c2cccs2)cc1,13 nM
2,CS(=O)(=O)c1ccc(/C=C/c2ccoc2)cc1,> 50000 nM
3,NS(=O)(=O)c1ccc(/C=C/c2ccoc2)cc1,> 50000 nM
4,CS(=O)(=O)c1ccc(/C=C/c2ccsc2)cc1,520 nM
5,NS(=O)(=O)c1ccc(/C=C/c2ccsc2)cc1,440 nM

# More lines, in order of falling IC50, values ahead:
row,IC50,SMILES
1,18300 nM,NS(=O)(=O)c1ccc(/C=C/c2ccco2)cc1
2,1180 nM,CS(=O)(=O)c1ccc(/C=C/c2ccco2)cc1
3,380 nM,CS(=O)(=O)c1ccc(/C=C/c2cccs2)cc1

# System: RAW264.7
# Test: Inhibition of COX-2 gene expression in LPS-stimulated mouse RAW264.7 cells after 24 hrs by RT-PCR analysis
# Assay type: functional, cell-based
row,SMILES,inhibition
1,NS(=O)(=O)c1ccc(/C=C/c2cccs2)cc1,Active
